From ChEMBL document CHEMBL5696442, “Discovery of type II inhibitors of TGFβ-activated kinase 1 (TAK1) and mitogen-activated protein kinase kinase kinase kinase 2 (MAP4K2)” (J Med Chem, 2015) come the findings set out here.

Activity calls are given as the source filed them. No cut-off for these calls is given here.

For assay [1], the target named is Epithelial discoidin domain-containing receptor 1 (Homo sapiens) (UniProt Q08345). The assay is described as follows: Inhibition of DDR1 (unknown origin) at 1 uM by Ambit Kinomescan binding assay relative to control; values are per cent of control.
In assay [2] the target is Ephrin type-A receptor 2 (Homo sapiens, UniProt P29317). The assay is described as follows: Inhibition of EPHA2 (unknown origin) at 1 uM by Ambit Kinomescan binding assay relative to control.
Assay [3] has as its target Serine/threonine-protein kinase 32C (Homo sapiens) (UniProt Q86UX6). Put plainly: Inhibition of YANK3 Lys2 labeling site in human A-375 cells at 0.5 uM by KiNativ Profiling analysis relative to control. Type of assay: cell-based.
In assay [4] the target is Glycogen synthase kinase-3 beta (Homo sapiens) (UniProt P49841). Put plainly: Inhibition of GSK3B (unknown origin) at 10 uM by Ambit Kinomescan binding assay.
The target in assay [5] is Cyclin-dependent kinase 11B (Homo sapiens) (UniProt P21127). The assay is described as follows: Inhibition of CDK11 (unknown origin) at 10 uM by Ambit Kinomescan binding assay relative to control; values are per cent of control.
The target in assay [6] is T1, Serine/threonine-protein kinase greatwall (Homo sapiens) (UniProt Q96GX5).
T1 sequence (whole entry): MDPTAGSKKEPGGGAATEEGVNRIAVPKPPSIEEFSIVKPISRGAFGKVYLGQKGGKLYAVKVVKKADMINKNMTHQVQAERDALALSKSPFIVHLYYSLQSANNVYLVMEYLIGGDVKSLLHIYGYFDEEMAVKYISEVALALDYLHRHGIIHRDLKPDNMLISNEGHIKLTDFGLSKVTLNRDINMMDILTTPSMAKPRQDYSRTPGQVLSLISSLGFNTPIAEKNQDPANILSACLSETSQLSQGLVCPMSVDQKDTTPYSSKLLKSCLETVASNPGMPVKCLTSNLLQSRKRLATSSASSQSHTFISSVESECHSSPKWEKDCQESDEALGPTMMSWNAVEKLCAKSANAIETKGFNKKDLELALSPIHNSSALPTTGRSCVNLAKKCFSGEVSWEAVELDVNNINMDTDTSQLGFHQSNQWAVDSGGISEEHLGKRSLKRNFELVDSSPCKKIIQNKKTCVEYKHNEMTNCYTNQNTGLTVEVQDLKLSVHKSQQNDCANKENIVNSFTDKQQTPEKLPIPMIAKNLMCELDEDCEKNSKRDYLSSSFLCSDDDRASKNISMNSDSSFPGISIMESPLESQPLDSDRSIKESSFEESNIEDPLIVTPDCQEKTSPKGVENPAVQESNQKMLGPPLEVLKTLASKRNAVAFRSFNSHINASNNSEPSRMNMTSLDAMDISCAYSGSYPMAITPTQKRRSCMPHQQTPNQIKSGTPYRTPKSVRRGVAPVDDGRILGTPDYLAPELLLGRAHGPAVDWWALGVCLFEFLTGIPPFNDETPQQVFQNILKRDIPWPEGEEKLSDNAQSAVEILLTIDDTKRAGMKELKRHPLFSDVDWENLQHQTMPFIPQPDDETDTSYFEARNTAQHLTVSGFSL
The assay is described as follows: Inhibition of MASTL ATP labeling site in human Huh-7 cells at 1 uM by KiNativ Profiling analysis relative to control. Type of assay: cell-based.

For assay [7], the target named is Serine/threonine-protein kinase PLK1 (Homo sapiens) (UniProt P53350). Put plainly: Inhibition of PLK1 (unknown origin) at 10 uM by Ambit Kinomescan binding assay.
In assay [8] the target is Calcium/calmodulin-dependent protein kinase type II subunit alpha (Homo sapiens) (UniProt Q9UQM7). Put plainly: Inhibition of CAMK2A (unknown origin) at 10 uM by Ambit Kinomescan binding assay.
In assay [9] the target is Mitogen-activated protein kinase kinase kinase kinase 4 (Homo sapiens, UniProt O95819). Put plainly: Inhibition of ZC1/HGK K1 labeling site harbouring TGQLAAIKVMDVTEDEEEEIKLEINMLKK in human Huh-7 cells at 1 uM by KiNativ Profiling analysis relative to control. Type of assay: cell-based.
The target of assay [10] is Proto-oncogene tyrosine-protein kinase Src (Homo sapiens, UniProt P12931). Put plainly: Inhibition of SRC ACT labeling site in human Huh-7 cells at 1 uM by KiNativ Profiling analysis relative to control. Type of assay: cell-based.
The target in assay [11] is Tyrosine-protein kinase CSK (Homo sapiens, UniProt P41240). The assay is described as follows: Inhibition of CSK ACT labeling site harbouring VSDFGLTKEASSTQDTGK in human Huh-7 cells at 10 uM by KiNativ Profiling analysis relative to control. Type of assay: cell-based.
Assay [12] relates to Tyrosine-protein kinase ABL1 (Homo sapiens), P00519 [T315I]. Put plainly: Inhibition of ABL1 T315I mutant (unknown origin) at 10 uM by Ambit Kinomescan binding assay relative to control; values are per cent of control.
The target in assay [13] is Serine/threonine-protein kinase MARK1 (Homo sapiens) (UniProt Q9P0L2). The assay is described as follows: Inhibition of MARK1 (unknown origin) at 10 uM by Ambit Kinomescan binding assay.
Assay [14] deals with Tyrosine-protein kinase Fes/Fps (Homo sapiens, UniProt P07332). The assay is described as follows: Inhibition of FES (unknown origin) at 10 uM by Ambit Kinomescan binding assay relative to control; values are per cent of control.
In assay [15] the target is T2, Acylglycerol kinase, mitochondrial (Homo sapiens) (UniProt Q53H12).
T2 sequence (whole entry): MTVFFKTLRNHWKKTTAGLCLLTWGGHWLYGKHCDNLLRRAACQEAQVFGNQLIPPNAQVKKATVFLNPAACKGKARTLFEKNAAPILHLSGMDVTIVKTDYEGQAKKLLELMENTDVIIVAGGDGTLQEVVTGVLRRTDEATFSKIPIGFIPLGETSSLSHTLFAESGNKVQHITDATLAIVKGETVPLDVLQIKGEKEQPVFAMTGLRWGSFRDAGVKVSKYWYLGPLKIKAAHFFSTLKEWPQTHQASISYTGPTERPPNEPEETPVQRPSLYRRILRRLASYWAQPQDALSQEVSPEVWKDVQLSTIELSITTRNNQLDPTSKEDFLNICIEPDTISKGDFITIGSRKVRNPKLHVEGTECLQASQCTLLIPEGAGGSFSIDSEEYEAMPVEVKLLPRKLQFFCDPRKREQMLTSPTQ
The assay is described as follows: Inhibition of AGK ATP labeling site in human Huh-7 cell lysate at 1 uM by KiNativ Profiling analysis relative to control. Type of assay: subcellular.

Assay [16] addresses Calcium/calmodulin-dependent protein kinase type 1 (Homo sapiens) (UniProt Q14012). The assay is described as follows: Inhibition of CaMK1a Lys1 labeling site in human Huh-7 cells at 1 uM by KiNativ Profiling analysis relative to control. Type of assay: cell-based.
In assay [17] the target is Serine/threonine-protein kinase WNK1 (Homo sapiens) (UniProt Q9H4A3). Put plainly: Inhibition of Wnk1 ACT labeling site in human Huh-7 cells at 1 uM by KiNativ Profiling analysis relative to control. Type of assay: cell-based.
The target in assay [18] is Serine/threonine-protein kinase Nek6 (Homo sapiens) (UniProt Q9HC98). The assay is described as follows: Inhibition of NEK6 Lys2 labeling site harbouring VMHRDIKPANVFITATGVVK in human Huh-7 cells at 1 uM by KiNativ Profiling analysis relative to control. Type of assay: cell-based.
Sequence of Serine/threonine-protein kinase Nek6 (Homo sapiens) (Q9HC98 whole entry): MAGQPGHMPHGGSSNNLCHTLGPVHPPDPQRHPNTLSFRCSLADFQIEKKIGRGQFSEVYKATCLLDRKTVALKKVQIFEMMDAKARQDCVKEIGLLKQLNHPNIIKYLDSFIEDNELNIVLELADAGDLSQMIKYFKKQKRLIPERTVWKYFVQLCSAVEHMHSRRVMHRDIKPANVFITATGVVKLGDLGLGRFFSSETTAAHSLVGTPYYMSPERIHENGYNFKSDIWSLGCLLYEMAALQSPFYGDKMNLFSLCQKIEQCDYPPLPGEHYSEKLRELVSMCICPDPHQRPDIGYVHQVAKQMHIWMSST

Sequence of Glycogen synthase kinase-3 beta (Homo sapiens) (P49841 whole entry, looked up): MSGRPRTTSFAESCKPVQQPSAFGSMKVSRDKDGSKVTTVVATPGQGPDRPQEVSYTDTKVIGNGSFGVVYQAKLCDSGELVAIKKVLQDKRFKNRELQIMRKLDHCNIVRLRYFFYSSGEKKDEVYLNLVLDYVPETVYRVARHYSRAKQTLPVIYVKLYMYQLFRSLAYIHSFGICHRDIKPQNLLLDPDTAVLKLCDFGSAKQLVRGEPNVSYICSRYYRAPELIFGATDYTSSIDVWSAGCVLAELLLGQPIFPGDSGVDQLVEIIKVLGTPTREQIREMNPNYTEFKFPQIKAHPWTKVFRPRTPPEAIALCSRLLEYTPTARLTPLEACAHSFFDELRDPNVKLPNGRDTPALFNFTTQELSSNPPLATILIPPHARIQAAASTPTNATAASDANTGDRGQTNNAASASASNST
Sequence of Calcium/calmodulin-dependent protein kinase type 1 (Homo sapiens) (Q14012 whole entry, looked up): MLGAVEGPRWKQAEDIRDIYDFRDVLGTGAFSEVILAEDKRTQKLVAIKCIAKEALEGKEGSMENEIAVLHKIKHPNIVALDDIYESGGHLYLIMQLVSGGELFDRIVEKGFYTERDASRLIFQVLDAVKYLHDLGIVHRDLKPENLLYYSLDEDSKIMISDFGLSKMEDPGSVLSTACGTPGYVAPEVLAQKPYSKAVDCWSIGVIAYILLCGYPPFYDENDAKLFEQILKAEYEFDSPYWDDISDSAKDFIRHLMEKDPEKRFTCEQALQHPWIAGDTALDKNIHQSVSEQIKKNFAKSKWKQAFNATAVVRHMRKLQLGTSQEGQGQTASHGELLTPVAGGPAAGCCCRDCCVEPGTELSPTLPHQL
Sequence of Serine/threonine-protein kinase WNK1 (Homo sapiens) (Q9H4A3 whole entry, looked up): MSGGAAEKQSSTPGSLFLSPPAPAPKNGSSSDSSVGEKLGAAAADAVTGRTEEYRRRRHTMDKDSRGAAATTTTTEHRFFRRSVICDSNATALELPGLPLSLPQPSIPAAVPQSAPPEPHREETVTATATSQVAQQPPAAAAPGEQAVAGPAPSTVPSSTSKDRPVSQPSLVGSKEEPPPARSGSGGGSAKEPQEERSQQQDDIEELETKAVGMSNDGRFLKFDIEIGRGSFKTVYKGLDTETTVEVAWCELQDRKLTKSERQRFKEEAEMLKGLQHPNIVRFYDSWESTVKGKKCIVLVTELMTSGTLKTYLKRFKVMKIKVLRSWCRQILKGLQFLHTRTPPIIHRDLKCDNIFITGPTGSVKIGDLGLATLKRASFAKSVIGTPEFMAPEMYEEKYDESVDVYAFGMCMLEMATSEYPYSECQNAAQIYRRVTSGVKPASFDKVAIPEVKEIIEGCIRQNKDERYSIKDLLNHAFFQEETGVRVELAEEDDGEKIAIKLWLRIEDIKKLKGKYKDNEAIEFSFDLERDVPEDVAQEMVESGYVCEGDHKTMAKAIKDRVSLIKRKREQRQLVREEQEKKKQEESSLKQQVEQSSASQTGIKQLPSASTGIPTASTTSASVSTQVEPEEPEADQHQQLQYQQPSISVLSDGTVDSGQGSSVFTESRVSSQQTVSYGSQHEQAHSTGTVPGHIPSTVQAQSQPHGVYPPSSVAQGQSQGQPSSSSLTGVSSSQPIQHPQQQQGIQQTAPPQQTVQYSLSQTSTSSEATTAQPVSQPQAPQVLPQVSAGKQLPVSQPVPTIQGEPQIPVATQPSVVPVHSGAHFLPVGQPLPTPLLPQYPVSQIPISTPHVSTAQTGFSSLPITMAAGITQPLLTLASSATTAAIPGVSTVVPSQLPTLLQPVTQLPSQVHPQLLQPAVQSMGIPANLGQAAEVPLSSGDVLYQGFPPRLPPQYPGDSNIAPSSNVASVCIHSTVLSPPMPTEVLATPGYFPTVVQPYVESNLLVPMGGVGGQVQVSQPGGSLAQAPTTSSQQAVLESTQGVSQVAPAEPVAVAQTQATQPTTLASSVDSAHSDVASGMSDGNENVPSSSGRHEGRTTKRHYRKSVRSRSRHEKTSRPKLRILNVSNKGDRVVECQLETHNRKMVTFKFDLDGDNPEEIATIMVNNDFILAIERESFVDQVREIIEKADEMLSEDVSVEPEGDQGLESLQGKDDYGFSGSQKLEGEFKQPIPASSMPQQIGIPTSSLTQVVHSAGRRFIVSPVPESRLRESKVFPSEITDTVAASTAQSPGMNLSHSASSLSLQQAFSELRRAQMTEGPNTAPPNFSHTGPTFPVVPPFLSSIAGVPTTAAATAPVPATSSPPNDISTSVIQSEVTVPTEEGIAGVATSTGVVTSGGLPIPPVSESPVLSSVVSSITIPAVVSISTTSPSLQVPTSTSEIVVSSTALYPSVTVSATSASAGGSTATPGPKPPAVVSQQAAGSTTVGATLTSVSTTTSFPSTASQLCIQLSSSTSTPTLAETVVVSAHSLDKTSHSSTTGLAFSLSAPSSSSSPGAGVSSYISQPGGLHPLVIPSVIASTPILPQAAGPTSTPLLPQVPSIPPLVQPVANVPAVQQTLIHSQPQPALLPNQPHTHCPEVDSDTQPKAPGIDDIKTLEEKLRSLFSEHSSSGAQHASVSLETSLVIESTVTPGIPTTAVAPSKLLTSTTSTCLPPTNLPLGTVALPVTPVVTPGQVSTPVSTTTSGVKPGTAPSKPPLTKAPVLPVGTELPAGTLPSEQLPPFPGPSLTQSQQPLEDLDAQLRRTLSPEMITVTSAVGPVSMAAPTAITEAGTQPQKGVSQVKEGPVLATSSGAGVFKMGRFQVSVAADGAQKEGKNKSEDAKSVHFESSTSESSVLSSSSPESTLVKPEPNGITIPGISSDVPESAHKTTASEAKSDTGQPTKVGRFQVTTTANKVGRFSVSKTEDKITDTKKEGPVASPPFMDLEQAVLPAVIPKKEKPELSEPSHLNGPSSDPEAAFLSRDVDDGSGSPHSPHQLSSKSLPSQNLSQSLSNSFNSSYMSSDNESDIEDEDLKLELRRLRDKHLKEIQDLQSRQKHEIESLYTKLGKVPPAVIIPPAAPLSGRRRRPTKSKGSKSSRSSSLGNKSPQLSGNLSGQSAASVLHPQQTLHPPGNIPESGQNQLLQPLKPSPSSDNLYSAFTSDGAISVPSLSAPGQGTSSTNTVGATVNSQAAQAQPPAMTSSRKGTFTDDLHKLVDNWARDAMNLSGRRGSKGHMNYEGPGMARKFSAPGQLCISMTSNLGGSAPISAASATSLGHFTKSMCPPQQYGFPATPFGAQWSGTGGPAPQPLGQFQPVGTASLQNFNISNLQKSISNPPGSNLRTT
Sequence of Ephrin type-A receptor 2 (P29317 whole entry): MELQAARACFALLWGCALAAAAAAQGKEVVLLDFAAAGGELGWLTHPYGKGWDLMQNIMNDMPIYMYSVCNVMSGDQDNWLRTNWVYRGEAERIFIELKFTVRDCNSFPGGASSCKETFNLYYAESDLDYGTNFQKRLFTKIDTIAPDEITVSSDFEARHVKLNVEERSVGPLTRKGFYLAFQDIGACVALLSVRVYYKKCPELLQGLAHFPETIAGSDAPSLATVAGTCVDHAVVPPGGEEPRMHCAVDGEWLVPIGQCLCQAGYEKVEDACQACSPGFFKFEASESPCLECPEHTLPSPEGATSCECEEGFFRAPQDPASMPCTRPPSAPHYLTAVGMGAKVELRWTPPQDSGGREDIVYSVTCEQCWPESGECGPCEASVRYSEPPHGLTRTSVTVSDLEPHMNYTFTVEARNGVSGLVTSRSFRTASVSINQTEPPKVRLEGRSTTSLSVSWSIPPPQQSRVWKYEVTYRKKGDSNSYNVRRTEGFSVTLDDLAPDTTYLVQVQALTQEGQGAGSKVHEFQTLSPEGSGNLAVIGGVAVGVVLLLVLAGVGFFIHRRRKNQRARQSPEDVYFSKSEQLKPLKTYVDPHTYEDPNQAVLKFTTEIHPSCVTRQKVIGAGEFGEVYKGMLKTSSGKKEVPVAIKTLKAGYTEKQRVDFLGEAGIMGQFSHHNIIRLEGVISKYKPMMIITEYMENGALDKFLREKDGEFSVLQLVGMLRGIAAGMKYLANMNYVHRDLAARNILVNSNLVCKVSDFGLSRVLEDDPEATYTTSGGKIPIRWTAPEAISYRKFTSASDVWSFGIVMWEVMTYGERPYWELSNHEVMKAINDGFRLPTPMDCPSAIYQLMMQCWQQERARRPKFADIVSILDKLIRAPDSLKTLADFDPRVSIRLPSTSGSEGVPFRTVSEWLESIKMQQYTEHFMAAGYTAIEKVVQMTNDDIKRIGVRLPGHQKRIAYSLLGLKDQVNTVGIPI
Sequence of Serine/threonine-protein kinase PLK1 (Homo sapiens) (P53350 whole entry): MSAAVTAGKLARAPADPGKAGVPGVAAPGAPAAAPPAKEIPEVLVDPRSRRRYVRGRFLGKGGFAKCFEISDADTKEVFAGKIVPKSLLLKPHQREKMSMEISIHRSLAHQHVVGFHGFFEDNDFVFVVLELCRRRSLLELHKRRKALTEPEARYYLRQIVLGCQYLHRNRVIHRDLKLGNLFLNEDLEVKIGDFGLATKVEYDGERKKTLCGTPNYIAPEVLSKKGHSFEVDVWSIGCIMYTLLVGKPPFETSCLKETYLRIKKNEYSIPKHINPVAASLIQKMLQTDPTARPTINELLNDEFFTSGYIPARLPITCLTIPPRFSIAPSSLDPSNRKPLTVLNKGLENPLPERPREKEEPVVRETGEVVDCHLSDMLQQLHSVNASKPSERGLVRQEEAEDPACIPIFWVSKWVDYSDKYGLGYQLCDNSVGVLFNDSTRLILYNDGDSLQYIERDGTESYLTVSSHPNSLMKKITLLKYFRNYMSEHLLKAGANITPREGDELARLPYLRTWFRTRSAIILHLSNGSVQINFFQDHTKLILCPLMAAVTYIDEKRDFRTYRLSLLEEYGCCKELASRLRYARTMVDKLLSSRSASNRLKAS

In assay [1], `CCN1CCN(Cc2ccc(NC(=O)c3ccc(C)c(/C=C/c4cnc5[nH]ccc5c4OC)c3)cc2C(F)(F)F)CC1` displayed a % of control of 0.05%. Besides, the percent of control in [2] is 1.2%. Moreover, the inhibition in assay [3] amounted to 11.5%.
Take `CCN1CCN(Cc2ccc(NC(=O)c3ccc(C)c(Oc4ccnc5[nH]ccc45)c3)cc2C(F)(F)F)CC1`: the inhibition result in [4], in assay [7], in [8] and in assay [13] was “inactive” throughout. In addition, in assay [5], the % of control amounted to 0.1%. The inhibition in assay [6] is 3.6%; in assay [9], 19.2%; in assay [10], -0.3%; in assay [11] it was 10.8%. Moreover, the values for the percent of control in [12] and in assay [14] were 0% and 2.2%, respectively.
Turning to `CNc1cc(Oc2cc(C(=O)Nc3cc(N4CCN(C)CC4)cc(C(F)(F)F)c3)ccc2C)ncn1`, the inhibition in [15] was 3.4%; in assay [16] it was 3.6%; in [17] it was 21.6%; in assay [18] it was 6.9%.
